According to paper PMC7781899, “Synthesis of some quinazolinones inspired from the natural alkaloid L-norephedrine as EGFR inhibitors and radiosensitizers” (Journal of Enzyme Inhibition and Medicinal Chemistry, 2020):

Assays:
[1] = target: T1, EGFR (Homo sapiens, UniProt P00533); assay: EGFR kinase assay; format: biochemical; conditions: EGFR-TK inhibitory assay; means ± SE, three repeats
T1 construct: purchased Invitrogen
Procedure: An ATP solution and a kinase/peptide mixture were developed just before use. […] Then, […] of the prepared solution was added to each well. The plate was incubated for 1 h and determined by an ELISA Reader (PerkinElmer, USA). Curve fitting using Graph Pad Prism 5 was constructed. Each experiment was repeated three times. IC50 was represented as means ± SE.

[2] = tested on: HepG-2; assay: MTT cytotoxicity assay, HepG-2; format: cell-based, human; conditions: for IC50: Homo sapiens, HepG2, MTT assay, mean of three experiments ± SE, read-out: IC50 HepG-2
Procedure: (§1) The 96-well plate was incubated for 24 h before the MTT assay. […] Cells were cultured using DMEM supplemented with 10% foetal bovine serum, 10 µg/mL insulin and 1% penicillin–streptomycin. Reconstituted MTT (10%) was added and incubated for 2 h. Formazan crystals were dissolved by the MTT solubilizing solution after incubation. Absorbance was measured at a wavelength of 570 nm[28].

[3] = tested on: MCF-7; assay: MTT cytotoxicity assay, MCF-7; format: cell-based, human; conditions: for IC50: Homo sapiens, MCF7, MTT assay, mean of three experiments ± SE, read-out: IC50 MCF-7; for Selectivity index (SI) MCF-7: relative to MCF-10A normal cells
Procedure: as §1

[4] = tested on: HCT-116; assay: MTT cytotoxicity assay, HCT-116; format: cell-based, human; conditions: for IC50: Homo sapiens, HCT-116, MTT assay, mean of three experiments ± SE, read-out: IC50 HCT-116; for Selectivity index (SI) HCT-116: relative to MCF-10A normal cells
Procedure: as §1

[5] = tested on: MDA-MB-231; assay: MTT cytotoxicity assay, MDA-MB-231; format: cell-based, human; conditions: for IC50: Homo sapiens, MDA-MB-231, MTT assay, mean of three experiments ± SE, read-out: IC50 MDA-MB-231; for Selectivity index (SI) MDA-MB-231: relative to MCF-10A normal cells
Procedure: as §1

[6] = tested on: MDA-MB-231; assay: Radiosensitizing evaluation, MDA-MB-231; format: cell-based; conditions: Homo sapiens, MDA-MB-231, light or radiation study, 48 h; single dose of 8 Gy gamma radiation; measured two days after irradiation
Procedure: (§2) Irradiation was performed at the National Centre for Radiation Research and Technology (NCRRT), Egyptian Atomic Energy Authority, using Gamma cell-40 (^137Cs) source. The promising compounds 5 and 6 were selected to be re-evaluated for in vitro cytotoxic activity after the cells containing the compounds were gamma-irradiated at a dose level of 8 Gy with a dose rate of 0.758 rad/s for 17.59 min. Cytotoxicity was measured two days after irradiation. The IC50 of the tested compounds is calculated using GraphPad Prism 5.

[7] = tested on: MDA-MB-231 cells; assay: Cell cycle analysis by flow cytometry (PI); format: cell-based, human; conditions: 0.76 μM, 24 h
Procedure: The MDA-MB-231 cells (10^5/well) were incubated with compound 5 at its IC50. After 24 h, the cells were washed twice with PBS, then collected and fixed with ice-cold ethanol 70% (v/v). The cells were re-suspended with 0.1 mg/mL RNase, stained with […] PI and examined using flow cytometry (FACScalibur-Becton Dickinson).

[8] = tested on: HCT-116; assay: Radiosensitizing evaluation, HCT-116; format: cell-based; conditions: Homo sapiens, HCT-116, light or radiation study, 48 h; single dose of 8 Gy gamma radiation; measured two days after irradiation
Procedure: as §2

[9] = tested on: MDA-MB-231 cells; assay: Apoptotic assay, Annexin V-FITC/PI; format: cell-based, human; conditions: 0.76 μM, 24 h
Procedure: Cells were prepared as previously mentioned. Treatment of cells (10^5) with Annexin V-FITC and propidium iodide (PI) was by apoptosis detection kit [BD Biosciences, San Jose, CA]. The binding of Annexin V-FITC and PI was examined using flow cytometry FACScalibur (BD Biosciences, San Jose, CA). CellQuest software was used for performing quadrant analysis of co-ordinate dot plots.

[10] = tested on: MDA-MB-231, MCF-7, HCT-116, HepG-2; assay: Radiosensitizing evaluation, all tested cell lines; format: cell-based; conditions: Homo sapiens, light or radiation study; single dose of 8 Gy gamma radiation; read-out: IC50 on all the tested cell lines after irradiation
Procedure: as §2

[11] = tested on: HepG-2; assay: Radiosensitizing evaluation, HepG-2; format: cell-based; conditions: Homo sapiens, HepG2, light or radiation study, 48 h; single dose of 8 Gy gamma radiation; measured two days after irradiation
Procedure: as §2

[12] = tested on: MDA-MB-231, MCF-7, HepG-2 and HCT-116 human cancer cell lines; assay: MTT assay, panel of cancer cell lines; format: cell-based; conditions: range over MDA-MB-231, MCF-7, HepG-2, HCT-116, read-out: IC50 against all the cell lines
Procedure: as §1

[13] = tested on: MCF-7; assay: Radiosensitizing evaluation, MCF-7; format: cell-based; conditions: Homo sapiens, MCF7, light or radiation study, 48 h; single dose of 8 Gy gamma radiation; measured two days after irradiation
Procedure: as §2

[14] = tested on: MCF-10A normal breast cell line; assay: MTT cytotoxicity assay, MCF-10A normal cells; format: cell-based; conditions: Homo sapiens
Procedure: as §1

T1 sequence (P00533 25-1210): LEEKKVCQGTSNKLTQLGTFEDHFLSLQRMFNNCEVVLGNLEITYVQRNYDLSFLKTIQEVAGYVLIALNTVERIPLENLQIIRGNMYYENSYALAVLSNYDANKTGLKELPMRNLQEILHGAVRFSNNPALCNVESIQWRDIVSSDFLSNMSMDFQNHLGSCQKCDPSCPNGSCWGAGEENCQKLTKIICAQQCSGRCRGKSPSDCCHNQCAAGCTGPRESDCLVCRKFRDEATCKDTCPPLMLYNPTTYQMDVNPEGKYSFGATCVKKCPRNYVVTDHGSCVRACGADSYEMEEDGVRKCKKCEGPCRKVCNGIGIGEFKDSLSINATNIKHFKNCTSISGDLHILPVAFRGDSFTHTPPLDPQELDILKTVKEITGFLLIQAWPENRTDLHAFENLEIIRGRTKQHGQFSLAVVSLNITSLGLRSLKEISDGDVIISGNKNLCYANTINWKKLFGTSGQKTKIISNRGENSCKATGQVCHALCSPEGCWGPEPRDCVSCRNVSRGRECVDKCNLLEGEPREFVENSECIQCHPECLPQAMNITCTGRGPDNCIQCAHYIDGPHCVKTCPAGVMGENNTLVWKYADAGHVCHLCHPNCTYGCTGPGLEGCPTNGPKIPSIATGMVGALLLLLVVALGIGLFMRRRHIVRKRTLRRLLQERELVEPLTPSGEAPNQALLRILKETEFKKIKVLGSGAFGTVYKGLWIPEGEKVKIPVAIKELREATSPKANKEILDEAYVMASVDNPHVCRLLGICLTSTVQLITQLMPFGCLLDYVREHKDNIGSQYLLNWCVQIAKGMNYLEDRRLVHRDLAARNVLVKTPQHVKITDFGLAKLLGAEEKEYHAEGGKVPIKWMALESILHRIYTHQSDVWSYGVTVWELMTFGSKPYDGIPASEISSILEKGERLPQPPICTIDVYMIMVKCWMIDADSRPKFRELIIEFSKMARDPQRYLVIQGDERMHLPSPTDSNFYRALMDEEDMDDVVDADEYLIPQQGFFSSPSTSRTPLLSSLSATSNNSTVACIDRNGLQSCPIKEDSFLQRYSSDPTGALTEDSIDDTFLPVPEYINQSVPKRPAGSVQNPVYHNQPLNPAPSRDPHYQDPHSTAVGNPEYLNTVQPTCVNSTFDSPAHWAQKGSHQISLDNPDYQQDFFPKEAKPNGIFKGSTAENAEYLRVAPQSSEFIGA

Question: Which IC50 [1] does the source give for `CC(C(O)c1ccccc1)n1c(=S)[nH]c2ccccc2c1=O` (stereo not shown) [Compound 4, 3-(1-hydroxy-1-phenylpropan-2-yl)-2-thioxo-2,3-dihydroquinazolin-4(1H)-one] here?
Answer: Its IC50 is 1.39 ± 0.14 µM.

Question: And the IC50 [2]?
Answer: The IC50 was 22.7 ± 0.61 µM.

Question: What about the IC50 [3] of the same molecule?
Answer: The IC50 was 25.55 ± 0.02 µM.

Question: And the IC50 [4]?
Answer: Its IC50 is 23.49 ± 0.05 µM.

Question: And the IC50 [5]?
Answer: The IC50 was 35.24 ± 0.24 µM.

Question: For `CSc1nc2ccccc2c(=O)n1C(C)C(O)c1ccccc1` (stereo not shown) [Compound 5, 3-(1-Hydroxy-1-phenylpropan-2-yl)-2-(methylthio)quinazolin-4(3H)-one], which melting point is on record?
Answer: Its melting point is 121.5 °C.

Question: What about the IC50 [1] of the same molecule?
Answer: Its IC50 is 0.76 ± 0.1 µM.

Question: What about the IC50 [6] of the same molecule?
Answer: Its IC50 is 0.78 ± 0.15 µM.

Question: And the IC50 [2]?
Answer: Its IC50 is 4.14 ± 0.03 µM.

Question: What about the “Selectivity index (SI) HepG-2” value ([2]; relative to MCF-10A normal cells) of the same molecule?
Answer: The value was 14.93.

Question: And the “% G2-M” value [7]?
Answer: The value was 40.39%.

Question: What about the “% Pre-G1” value [7] of the same molecule?
Answer: Its value is 19.23%.

Question: What about the “% S” value [7] of the same molecule?
Answer: Its value is 34.84%.

Question: And the “%G0-G1” value [7]?
Answer: Its value is 24.77%.

Question: And the “rise of percentage of cells at pri-G1 phase over control” value [7]?
Answer: Its value is 10 folds.

Question: And the IC50 [8]?
Answer: Its IC50 is 2.28 ± 0.41 µM.

Question: What about the “Apoptotic assay % Early” value [9] of the same molecule?
Answer: Its value is 7.36%.

Question: And the “Apoptotic assay % Late” value [9]?
Answer: The value was 11.74%.

Question: And the “Apoptotic assay % Necrosis” value [9]?
Answer: Its value is 3.84%.

Question: What about the “Apoptotic assay % Total” value [9] of the same molecule?
Answer: The value was 22.94%.

Question: And the “apoptosis over the control” value [9]?
Answer: The value was “more than 12 folds”.

Question: And the IC50 [10]?
Answer: The IC50 was < 5 µM.

Question: What about the IC50 [3] of the same molecule?
Answer: The IC50 was 5.43 ± 0.14 µM.

Question: What about the “Selectivity index (SI) MCF-7” value [3] of the same molecule?
Answer: The value was 11.39.

Question: And the IC50 [11]?
Answer: The IC50 was 2.34 ± 0.23 µM.

Question: And the IC50 [4]?
Answer: The IC50 was 5.76 ± 0.11 µM.

Question: What about the “Selectivity index (SI) HCT-116” value [4] of the same molecule?
Answer: Its value is 10.74.

Question: What about the IC50 [12] of the same molecule?
Answer: The IC50 was 1.53 to 5.76 µM.

Question: And the IC50 [13]?
Answer: Its IC50 is 2.35 ± 0.18 µM.

Question: What about the IC50 [5] of the same molecule?
Answer: The IC50 was 1.53 ± 0.01 µM.

Question: What about the “Selectivity index (SI) MDA-MB-231” value [5] of the same molecule?
Answer: The value was 40.42.

Question: And the IC50 [14]?
Answer: Its IC50 is 61.9 ± 2.14 µM.

Question: With `Nn1c(=S)[nH]c2ccccc2c1=O` [Compound 6, 3-Amino-2-thioxo-2,3-dihydroquinazolin-4(1H)-one] as the molecule, how does the melting point read?
Answer: Its melting point is 261.2 °C.

Question: And the IC50 [1]?
Answer: The IC50 was 2.13 ± 0.21 µM.

Question: And the IC50 [6]?
Answer: The IC50 was 1.04 ± 0.04 µM.

Question: And the IC50 [2]?
Answer: The IC50 was 17.6 ± 0.15 µM.

Question: What about the IC50 [8] of the same molecule?
Answer: Its IC50 is 6.98 ± 0.25 µM.

Question: And the IC50 [3]?
Answer: The IC50 was 7.23 ± 0.07 µM.

Question: And the “Selectivity index (SI) MCF-7” value [3]?
Answer: Its value is 6.81.

Question: What about the IC50 [11] of the same molecule?
Answer: Its IC50 is 14.26 ± 0.11 µM.

Question: What about the IC50 [4] of the same molecule?
Answer: Its IC50 is 10.6 ± 0.19 µM.

Question: What about the “Selectivity index (SI) HCT-116” value [4] of the same molecule?
Answer: Its value is 4.64.

Question: What about the IC50 [13] of the same molecule?
Answer: The IC50 was 4.26 ± 0.01 µM.

Question: What about the IC50 [5] of the same molecule?
Answer: The IC50 was 1.6 ± 0.01 µM.

Question: And the “Selectivity index (SI) MDA-MB-231” value [5]?
Answer: The value was 30.75.

Question: What about the IC50 [14] of the same molecule?
Answer: The IC50 was 49.2 ± 1.52 µM.

Question: Which results are given for `CSc1nc2ccccc2c(=O)n1N` [Compound 7, 3-Amino-2-(methylthio)quinazolin-4(3H)-one]?
Answer: melting point: 178.9 °C; IC50 [1]: 3.44 ± 0.15 µM; IC50 [2]: 48.3 ± 0.93 µM; IC50 [3]: 68.1 ± 1.21 µM; IC50 [4]: 59.2 ± 0.78 µM; IC50 [5]: 23.48 ± 0.06 µM

Question: Which IC50 [1] does the source give for `CC1C(c2ccccc2)Sc2nc3ccccc3c(=O)n21` (stereo not shown) [Compound 8, 3-Methyl-2-phenyl-2H-thiazolo[2,3-b]quinazolin-5(3H)-one] here?
Answer: The IC50 was 3.74 ± 0.17 µM.

Question: What about the IC50 [2] of the same molecule?
Answer: The IC50 was 47.32 ± 0.47 µM.

Question: And the IC50 [3]?
Answer: The IC50 was 70.1 ± 0.87 µM.

Question: And the IC50 [4]?
Answer: Its IC50 is 49.22 ± 0.49 µM.

Question: And the IC50 [5]?
Answer: Its IC50 is 38.19 ± 0.38 µM.

Question: Which IC50 [1] does the source give for `CC1Nn2c(nc3ccccc3c2=O)OC1c1ccccc1` (stereo not shown) [Compound 9, 3-Methyl-2-phenyl-3,4-dihydro-[1,3,4]oxadiazino[2,3-b]quinazolin-6(2H)-one] here?
Answer: The IC50 was 9.78 ± 0.31 µM.

Question: And the IC50 [2]?
Answer: Its IC50 is > 100 µM.

Question: And the IC50 [3]?
Answer: The IC50 was > 100 µM.

Question: And the IC50 [4]?
Answer: The IC50 was 90.54 ± 0.73 µM.

Question: What about the IC50 [5] of the same molecule?
Answer: The IC50 was 84.15 ± 0.62 µM.

Question: Which IC50 [1] does the source give for `CC1Nn2c(nc3ccccc3c2=O)SC1c1ccccc1` (stereo not shown) [Compound 10, 3-methyl-2-phenyl-3,4-dihydro-[1,3,4]thiadiazino[2,3-b]quinazolin-6(2H)-one] here?
Answer: The IC50 was 3.09 ± 0.2 µM.

Question: What about the IC50 [2] of the same molecule?
Answer: Its IC50 is 35.6 ± 0.36 µM.

Question: What about the IC50 [3] of the same molecule?
Answer: Its IC50 is 37.31 ± 0.29 µM.

Question: And the IC50 [4]?
Answer: The IC50 was 46.3 ± 0.63 µM.

Question: What about the IC50 [5] of the same molecule?
Answer: The IC50 was 21.86 ± 0.04 µM.
